System: patients of the REDUCE-IT and earlier EPA placebo-controlled trials
Type: in vivo, human
Settings: R-I

CC/C=C\C/C=C\C/C=C\C/C=C\C/C=C\CCCC(=O)OCC [icosapent ethyl, eicosapentaenoic acid ethyl ester]
ARR: Platelet count: PCS Low <100 × 10^3/uL: −0.6%
ARR: SBP High (≥160 mmHg): −1.7%
ARR: SBP High and rose ≥20 mmHg: −1.1%
ARR: SBP Low (≤90 mmHg): 0.5%
ARR: SBP dropped ≥20 mmHg: 2.6%
ARR: SBP low and dropped ≥20 mmHg: 0.2%
ARR: SBP rose ≥20 mmHg: −0.7%
ARR: Urate high (Day 120): 4.4%
ARR: Urate high (Day 360): 3.9%
ARR: Urate high (Day 720): 3.4%
ARR: Urate high (Day 1080): 1.2%
ARR: Urate high (Day 1440): 1.3%
ARR: Urate high (Day 1800): 1.0%
ARR: Urate shift: normal to high (Day 120): 2.8%
ARR: Urate shift: normal to high (Day 360): 3.0%
ARR: Urate shift: normal to high (Day 720): 2.5%
ARR: Urate shift: normal to high (Day 1080): 0.8%
ARR: Urate shift: normal to high (Day 1440): 0.6%
ARR: Urate shift: normal to high (Day 1800): 0.2%
ARR: Urate shift: normal to low (Day 120): 0.1%
ARR: Urate shift: normal to low (Day 360): −0.1%
ARR: Urate shift: normal to low (Day 720): −0.2%
ARR: Urate shift: normal to low (Day 1080): −0.1%
ARR: Urate shift: normal to low (Day 1440): −0.4%
ARR: Uric acid PCS High >7.5 mg/dL (Women): 0.8%
ARR: Uric acid PCS High >8.0 mg/dL (Men): 4.2%
ARR: Uric acid PCS Low <1.9 mg/dL (Women): 0.0%
ARR: Uric acid PCS Low <2.5 mg/dL (Men): −0.2%
NNT: ALP high (Day 120): 67
NNT: ALP high (Day 360): 50
NNT: ALP high (Day 720): 41
NNT: ALP high (Day 1080): 33
NNT: ALP high (Day 1440): 34
NNT: ALP high (Day 1800): 37
NNT: ALP shift: normal to high (Day 120): 78
NNT: ALP shift: normal to high (Day 360): 54
NNT: ALP shift: normal to high (Day 720): 39
NNT: ALP shift: normal to high (Day 1080): 34
NNT: ALP shift: normal to high (Day 1440): 37
NNT: ALP shift: normal to high (Day 1800): 39
NNT: ALP shift: normal to low (Day 120): −267
NNT: ALP shift: normal to low (Day 360): −359
NNT: ALP shift: normal to low (Day 720): −252
NNT: ALP shift: normal to low (Day 1080): −360
NNT: ALP shift: normal to low (Day 1440): −956
NNT: Albumin high (Day 120): −133
NNT: Albumin high (Day 360): −138
NNT: Albumin high (Day 720): −156
NNT: Albumin high (Day 1080): −140
NNT: Albumin high (Day 1440): −132
NNT: Albumin shift: normal to high (Day 120): −123
NNT: Albumin shift: normal to high (Day 360): −137
NNT: Albumin shift: normal to high (Day 720): −140
NNT: Albumin shift: normal to high (Day 1080): −248
NNT: Albumin shift: normal to high (Day 1440): −145
NNT: Bilirubin >1x ULN to 2x ULN: −29
NNT: Bilirubin >2x ULN to 3x ULN: −497
NNT: Bilirubin high (Day 120): −42
NNT: Bilirubin high (Day 360): −50
NNT: Bilirubin high (Day 720): −38
NNT: Bilirubin high (Day 1080): −50
NNT: Bilirubin high (Day 1440): −40
NNT: Bilirubin high (Day 1800): −43
NNT: Bilirubin shift: normal to high (Day 120): −77
NNT: Bilirubin shift: normal to high (Day 360): −80
NNT: Bilirubin shift: normal to high (Day 720): −76
NNT: Bilirubin shift: normal to high (Day 1080): −95
NNT: Bilirubin shift: normal to high (Day 1440): −57
NNT: Bilirubin shift: normal to high (Day 1800): −81
NNT: Calcium high (Day 120): 430
NNT: Calcium high (Day 360): 1019
NNT: Calcium high (Day 720): 325
NNT: Calcium low (Day 120): −1944
NNT: Calcium low (Day 360): −410
NNT: Calcium low (Day 720): −567
NNT: DBP High (≥100 mmHg): −165
NNT: DBP High and Rose ≥10 mmHg: −264
NNT: DBP Low (≤50 mmHG): −794
NNT: DBP Low and dropped ≥10 mmHg: −3916
NNT: DBP dropped ≥10 mmHG: −32
NNT: DBP rose ≥10 mmHg: 158
NNT: High platelets (Day 720): −162
NNT: Low platelets (Day 360): 54
NNT: Low platelets (Day 720): 144
NNT: Low platelets (Day 1080): 85
NNT: Platelet count: PCS Low <100 × 10^3/uL: 166
NNT: SBP High (≥160 mmHg): 58
NNT: SBP High and rose ≥20 mmHg: 87
NNT: SBP Low (≤90 mmHg): −221
NNT: SBP dropped ≥20 mmHg: −38
NNT: SBP low and dropped ≥20 mmHg: −497
NNT: SBP rose ≥20 mmHg: 140
NNT: Urate high (Day 120): −22
NNT: Urate high (Day 360): −26
NNT: Urate high (Day 720): −29
NNT: Urate high (Day 1080): −81
NNT: Urate high (Day 1440): −76
NNT: Urate high (Day 1800): −103
NNT: Urate shift: normal to high (Day 120): −36
NNT: Urate shift: normal to high (Day 360): −33
NNT: Urate shift: normal to high (Day 720): −39
NNT: Urate shift: normal to high (Day 1080): −127
NNT: Urate shift: normal to high (Day 1440): −160
NNT: Urate shift: normal to high (Day 1800): −422
NNT: Urate shift: normal to low (Day 120): −1647
NNT: Urate shift: normal to low (Day 360): 1418
NNT: Urate shift: normal to low (Day 720): 533
NNT: Urate shift: normal to low (Day 1080): 740
NNT: Urate shift: normal to low (Day 1440): 280
NNT: Uric acid PCS High >7.5 mg/dL (Women): −120
NNT: Uric acid PCS High >8.0 mg/dL (Men): −24
NNT: Uric acid PCS Low <1.9 mg/dL (Women): −1.58e+07
NNT: Uric acid PCS Low <2.5 mg/dL (Men): 569
Placebo-Adjusted % Change: Alkaline phosphatase (Day 120): −10.4%
Placebo-Adjusted % Change: Alkaline phosphatase (Day 360): −12.5%
Placebo-Adjusted % Change: Alkaline phosphatase (Day 720): −12.6%
Placebo-Adjusted % Change: Alkaline phosphatase (Day 1080): −14.1%
Placebo-Adjusted % Change: Alkaline phosphatase (Day 1440): −13.1%
Placebo-Adjusted % Change: DBP (Day 120): −.9%
Placebo-Adjusted % Change: DBP (Day 360): −.8%
Placebo-Adjusted % Change: DBP (Day 720): −.6%
Placebo-Adjusted % Change: DBP (Day 1080): −.5%
Placebo-Adjusted % Change: DBP (Day 1440): −.4%
Placebo-Adjusted % Change: SBP (Day 120): −1%
Placebo-Adjusted % Change: SBP (Day 360): −1.1%
Placebo-Adjusted % Change: SBP (Day 720): −1%
Placebo-Adjusted % Change: SBP (Day 1080): −1.1%
Placebo-Adjusted % Change: SBP (Day 1440): −.9%
Placebo-Adjusted % Change: Urate (Day 120): +4.31%
Placebo-Adjusted % Change: Urate (Day 360): +4.07%
Placebo-Adjusted % Change: Urate (Day 720): +3.66%
Placebo-Adjusted % Change: Urate (Day 1080): +2.94%
Placebo-Adjusted % Change: Urate (Day 1440): +3.23%
Risk Ratio (95% CI): ALP high (Day 120): 0.623 (0.485 to 0.801) 2
Risk Ratio (95% CI): ALP high (Day 360): 0.542 (0.420 to 0.700) 3
Risk Ratio (95% CI): ALP high (Day 720): 0.568 (0.449 to 0.717) 3
Risk Ratio (95% CI): ALP high (Day 1080): 0.486 (0.375 to 0.630) 3
Risk Ratio (95% CI): ALP high (Day 1440): 0.483 (0.362 to 0.644) 3
Risk Ratio (95% CI): ALP high (Day 1800): 0.527 (0.362 to 0.767) 3
Risk Ratio (95% CI): ALP shift: normal to high (Day 120): 0.401 (0.267 to 0.603) 3
Risk Ratio (95% CI): ALP shift: normal to high (Day 360): 0.335 (0.227 to 0.497) 4
Risk Ratio (95% CI): ALP shift: normal to high (Day 720): 0.397 (0.291 to 0.541) 4
